From patent US20130324545A1, “METHODS FOR THE REGULATION OF THE PROSTAGLANDIN F SYNTHASE (PGFS) ACTIVITY OF AKR1B1 AND USES THEREOF” (UNIVERSITE LAVAL, priority 2007, published 2013)
pIC50: −log10 of the molar value. Like-named read-outs stand apart in the source and are kept apart here.

Legend:
[1] = test system: human endometrial epithelial (HIEEC) cells; assay: PGF2α and PGE2 production and enzyme expression in endometrial epithelial HIEEC cells stimulated with IL-1β (ELISA, Western blot); format: cell-based; conditions: for pIC50: Homo sapiens; for PGF2α production / expression of PGF2α biosynthetic enzymes (AKR1B1, COX-1, COX-2): increasing doses of cytokine, HIEEC
Experimental: (§1) Western blot analysis was performed with approximately 20 μg total proteins from cultured cells on a 10% SDS-PAGE gel, followed by electro-transfer onto nitrocellulose membrane. The primary antibodies used for the present study were rabbit AKR1B1 (dilution 1:1000) and COX-2 (dilution 1:10 000) anti-sera and goat AKR1C3 (dilution 1:500) anti-serum. A β-actin monoclonal antibody (1:5000, Sigma, Mississauga, Ontario, Canada) was used as an internal control. Goat anti-rabbit IgG conjugated with horseradish peroxidase (HRP) (Jackson Immunoresearch Laboratories, West Grove, Pa., USA), rabbit anti-goat IgG HRP and goat anti-mouse IgG HRP were used as secondary antibodies. Chemiluminescence was analyzed with autoradiography films at optimal times of exposure following treatment of the membranes with Renaissance™ reagent (NEN Life Science Products, Boston, Mass., USA).
(§2) For cell culture transfection, immortalized human endometrial stromal cells (HIESC-2) and epithelial cells(HIEEC-22) were cultured in RPMI 1640 without phenol red, containing 50 IU penicillin-streptomycin supplemented with 10% whole fetal bovine serum (FBS). Ten percent dextran-coated charcoal-extracted FBS was used once cells have reached confluency. Knock-down and knock-in transfections of cells with AKR1B1 specific siRNA, AKR1B1 or AKRIC3 cDNAs in pCR3.1 expression vectors were performed with Lipofectamine™ 2000 for 4 hours in culture medium without antibiotic. Thirty-six hours after transfection (24 hours for siRNA transfection), cells were treated for 24 hours with recombinant human interleukin 1β (IL-1β) (1 ng/ml) (R&D Systems, Minneapolis, Minn., USA) or arachidonic acid (AA) 10 μM in RPMI 1640 medium without serum. At the end of the treatment period, the culture medium was recovered and stored at −20° C. until evaluation for PGF2α production.
(§3) Enzymatic immunoassay (EIA) was performed with an acetylcholinesterase-linked PGF2α tracer (Cayman) as described previously (Asselin et al., Biol Reprod 54(2); 371-9, 1996). Sheep anti-PGF2α (Bio-Quant, Ann Arbor, Mich., USA) was used as the selective antibody. Inter-assay and intra-assay coefficients of variations (n=12) were of 16% and 10% respectively. Statistical analysis was performed using ANOVA with Statview™ software (Abacus Concept, Calif.). Values were considered statistically significant for p<0.05.

[2] = test system: human endometrial stromal (HIESC) cells; assay: PGF2α and PGE2 production and enzyme expression in endometrial stromal HIESC cells stimulated with IL-1β (ELISA, Western blot); format: cell-based; conditions: for PGE2 production in presence of PG receptor antagonist: IL-1β-stimulated stromal HIESC; for pIC50: Homo sapiens, stromal HIESC cells stimulated by IL-1β, ELISA, range in brackets
AKR1B1 = target: T1, AKR1B1 (Homo sapiens, UniProt P15121); assay: Effect of ASA / COX inhibitors on AKR1B1 expression and PGF synthase activity in cells expressing AKR1B1; format: cell-based
T1 construct: endogenous in cells; host or cells: 'our cellular model'
Experimental: as §1

macrophages = macrophages treated with endotoxines or lipopolysaccharides; cited from earlier work
[3] = diabetic subjects having neuropathies; cited from earlier work
[4] = test system: human endometrial stromal (HIESC) cells; assay: PGF2α and PGE2 production and enzyme expression in endometrial stromal HIESC cells stimulated with IL-1β (ELISA, Western blot); format: cell-based; conditions: increasing doses of cytokine
Experimental: as §1, §2, §3

[5] = test system: human primary cardiomyocytes; assay: Effect of IL-1β and TNF-α on PGF2α, COX-2 and AKR1B1 in human primary cardiomyocytes (ELISA, Western blot); format: cell-based; conditions: for PGF2α production: FIG. 19, ELISA; for AKR1B1 and COX-2 protein expression: FIG. 19, Western blot
Excerpt: FIG. 19 comprises FIG. 19A, 19B, 19C and 19D, and illustrates the effect of IL-1β and TNF-α on the production of PGF2α (A), COX-2 (B) and AKR1B1 (C) by human primary cardiomyocytes, as measured by ELISA and Western blot. FIG. 19D illustrates β-actin levels of the three cells groups.

[6] = test system: primary human umbilical artery smooth muscle cells (HUASMC); assay: Effect of IL-1β on PGF2α, COX-2 and AKR1B1 in primary HUASMC; format: cell-based
Excerpt: FIG. 20 comprises FIGS. 20A and 20B, with FIG. 20A illustrating the effect of IL-1β on the production of PGF2α by primary human umbilical artery smooth muscle cells (HUASMC), as measured by ELISA; and FIG. 20B illustrating the effect of IL-1β on the protein expression of COX-2 and AKR1B1 in primary HUASMC.

[7] = test system: primary human umbilical vein smooth muscle cells (HUVSMC); assay: Effect of IL-1β on PGF2α, COX-2 and AKR1B1 in primary HUVSMC; format: cell-based
Excerpt: FIG. 21 comprises FIGS. 21A and 21B, with FIG. 21A illustrating the effect of IL-1β on the production of PGF2α by primary human umbilical vein smooth muscle cells (HUVSMC), as measured by ELISA; and FIG. 21B illustrating the effect of IL-1β on the protein expression of COX-2 and AKR1B1 in primary HUVSMC.

[8] = test system: primary human umbilical vein endothelial cells (HUVEC); assay: Effect of IL-1β and TNF-α on PGF2α, COX-2 and AKR1B1 in primary HUVEC; format: cell-based; conditions: for PGF2α production: ELISA; for COX-2 protein expression: endogenous AKR1B1 levels already high
Excerpt: FIG. 22 comprises FIGS. 22A and 22B, with FIG. 22A illustrating the effect of IL-1β and TNF-α on the production of PGF2α by primary human umbilical vein endothelial cells (HUVEC), as measured by ELISA; and FIG. 22B illustrating the effect of IL-1β and TNF-α on the protein expression of COX-2 and AKR1B1 in primary HUVEC.

[9] = read-out: IC50 PGF2α production
[10] = HIEEC cells stimulated by IL-1β, ELISA, range in brackets, read-out: IC50 PGE2 production
[11] = HIEEC cells treated with IL-1β, ELISA, range in brackets, read-out: IC50 PGF2α production

## O=C(O)CCC/C=C\C[C@@H]1[C@@H](/C=C/[C@H](O)C2Cc3ccccc3C2)[C@@H](F)C[C@@H]1O [AL8810]
[1]; IL-1β-stimulated epithelial HIEEC
  PGE2 production in presence of PG receptor antagonist: induced a reduction in PGE2 production
[2]
  PGE2 production in presence of PG receptor antagonist: induced a reduction in PGE2 production
[2]; listed as AL 8810
  PGE2 production in presence of PG receptor antagonist: reduced PGE2 production

## CC(=O)Oc1ccccc1C(=O)O [Aspirin, acetylsalicylic acid]
[1]; [9]
  pIC50: 5.71
AKR1B1
  AKR1B1 gene expression: blocks
AKR1B1; 1-5 mM, cellular model
  inhibition of AKR1B1 protein: dose-dependent inhibition
AKR1B1; cells expressing AKR1B1
  PGF synthase activity: strongly reduced
  protein expression level of AKR1B1: strongly reduced

## CS(=O)(=O)Nc1ccc([N+](=O)[O-])cc1OC1CCCCC1 [NS-398]
[1]; COX-1-expressing HIEEC, IL-1β
  inhibition of PGF2α production: did not completely inhibited

## O=C1NC(=O)[C@@]2(CCOc3ccc(F)cc32)N1 [Sorbinil™]
macrophages
  production levels of PGE2: capable to reduce

## O=C(O)Cc1nn(Cc2ccc(Br)cc2F)c(=O)c2ccccc12 [Statil™]
[3]
  side-effects: undesirable hepatic side-effects

## COc1ccc2c(C(=S)N(C)CC(=O)O)cccc2c1C(F)(F)F [Tolrestat™]
macrophages
  production levels of PGE2: capable to reduce
[3]
  side-effects: undesirable hepatic side-effects

## O=C(O)Cc1nn(Cc2nc3cc(C(F)(F)F)ccc3s2)c(=O)c2ccccc12 [Zopolrestat™]
macrophages
  production levels of PGE2: capable to reduce
[3]
  side-effects: undesirable hepatic side-effects

## COc1ccc2cc([C@H](C)C(=O)O)ccc2c1 [naproxen]
[1]; HIEEC cells stimulated by IL-1β
  potency for inhibition of PGF2α production compared with Aspirin: more potent than Aspirin™
[1]; [10]
  pIC50: 6.85
[1]; [11]
  pIC50: 8.34
[1]; at 10 nM
  PGF2α/PGE2 ratio: strong alteration of the PGF2α/PGE2 ratio in favor of PGE2
[1]; endometrial epithelial cells (express COX-1 and COX-2)
  inhibits PGF2α more efficiently than PGE2: 100 times
[2]; read-out: IC50 PGE2 production
  pIC50: 7.20
[2]; [9]
  pIC50: 7.36
[2]; endometrial stromal cells (only express COX-2)
  inhibition of PGF2α versus PGE2 production, comparison of IC50: comparable IC50

## CS(=O)(=O)c1ccc(C2=C(c3ccccc3)C(=O)OC2)cc1 [rofecoxib]
[1]; HIEEC cells stimulated with IL-1β
  inhibits production of PGE2 more efficiently than production of PGF2α: ten times more efficiently
[1]; [10]
  pIC50: 7.29
[1]; [11]
  pIC50: 6.70
[1]; at 10 μM
  PGF2α/PGE2 ratio: strong alteration of the PGF2α/PGE2 ratio in favor of PGF2α
AKR1B1
  AKR1B1 gene expression: do not influence

## IL-1β: recombinant human interleukin 1β
[1]; HIEEC-22, 1 ng/ml, Western blot
  AKR1C3 protein expression level: no effect
[1]
  PGF2α production: increase in PGF2α production
  expression of PGF2α biosynthetic enzymes (AKR1B1, COX-1, COX-2): significant increase in expression of AKR1B1, COX-1 and COX-2
[4]
  PGF2α production: increase in PGF2α production
  expression of PGF2α biosynthetic enzymes (AKR1B1, COX-1, COX-2): only of COX-2
[5]
  PGF2α production: stimulated
  AKR1B1 and COX-2 protein expression: stimulated
[6]
  AKR1B1 and COX-2 protein expression: stimulated
[6]; ELISA
  PGF2α production: stimulated
[7]
  AKR1B1 and COX-2 protein expression: stimulated
[7]; ELISA
  PGF2α production: stimulated
[8]
  PGF2α production: stimulated
  COX-2 protein expression: stimulated

## TNF-α
[1]
  PGF2α production: increase in PGF2α production
  expression of PGF2α biosynthetic enzymes (AKR1B1, COX-1, COX-2): significant increase in expression of AKR1B1, COX-1 and COX-2
[4]
  PGF2α production: increase in PGF2α production
  expression of PGF2α biosynthetic enzymes (AKR1B1, COX-1, COX-2): significant increase in expression of AKR1B1, COX-1 and COX-2
[5]
  PGF2α production: stimulated
  AKR1B1 and COX-2 protein expression: stimulated
[8]
  PGF2α production: stimulated
  COX-2 protein expression: stimulated
